Data set [1] concerns the target Cytochrome P450 3A4 (Homo sapiens, UniProt P08684). The experiment in a line: Inhibition of CYP3A4 (unknown origin). In kind it is ADME.
In data set [2] the test system is Hepatitis B virus. The experiment in a line: Antiviral activity against Hepatitis B virus infected in human HepDE19 cells assessed as reduction in viral replication incubated for 3 to 7 days by PCR analysis. In kind it is functional, organism-based.
Data set [3] can be described thus: Clearance in rat at 2 mg/kg,iv. Type of data set: ADME, organism-based. The conditions noted are these: in vivo.
The target in data set [4] is T1, Cytochrome P450 1A2 (Homo sapiens, UniProt P05177).
T1 sequence (P05177 whole entry): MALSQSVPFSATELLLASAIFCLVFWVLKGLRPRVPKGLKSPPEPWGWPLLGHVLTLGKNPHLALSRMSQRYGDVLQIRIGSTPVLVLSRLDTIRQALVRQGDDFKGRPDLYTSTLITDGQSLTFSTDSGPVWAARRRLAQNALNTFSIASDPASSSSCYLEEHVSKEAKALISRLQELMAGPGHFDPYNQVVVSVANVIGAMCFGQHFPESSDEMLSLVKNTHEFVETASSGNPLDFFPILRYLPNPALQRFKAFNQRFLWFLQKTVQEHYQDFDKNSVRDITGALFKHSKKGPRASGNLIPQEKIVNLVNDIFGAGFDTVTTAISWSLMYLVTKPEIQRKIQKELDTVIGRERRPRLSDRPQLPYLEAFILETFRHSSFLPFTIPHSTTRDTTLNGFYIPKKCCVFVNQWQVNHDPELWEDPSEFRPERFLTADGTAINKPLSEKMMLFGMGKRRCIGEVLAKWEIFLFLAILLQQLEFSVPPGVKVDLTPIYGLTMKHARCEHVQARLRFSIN
The data set is described as follows: Inhibition of CYP1A2 (unknown origin). Type of data set: ADME.

The nature of data set [5]: Half life in rat at 2 mg/kg,iv. The conditions noted are these: in vivo. In kind it is ADME, organism-based.
A short description of data set [6]: Clearance in dog at 2 mg/kg,iv. In kind it is ADME, organism-based, Canis lupus familiaris. To be noted: in vivo.
Data set [7] in a line: in vivo. The conditions noted are these: dog, po, 10 mg/kg.
Description: AUC (0-infinity) in dog at 10 mg/kg,po
The nature of data set [8]: Half life in CD-1 mouse at 2 mg/kg,iv. In kind it is ADME, organism-based. To be noted: in vivo.
In data set [9] the test system is Hepatitis B virus. The experiment in a line: Antiviral activity against Hepatitis B virus Genotype D infected in NOD.CB17-PrkdcSCID/J mouse model assessed as log reduction in serum HBV DNA level at 30 mg/kg,po dosed for 7 consecutive days by qPCR analysis. Type of data set: functional. On the technique in general: In qPCR the cycle at which signal appears reflects the starting amount.

Data set [10] addresses Cytochrome P450 2C9 (Homo sapiens, UniProt P11712). The data set is described as follows: Inhibition of CYP2C9 (unknown origin). In kind it is ADME.
Data set [11] in a line: Cmax in dog at 10 mg/kg,po. To be noted: in vivo. Details: dose 10 mg/kg, route po. Type of data set: ADME, organism-based, Canis lupus familiaris.
Data set [12] is described as follows: Cmax in rat at 10 mg/kg,po. In kind it is ADME, organism-based. To be noted: in vivo. Details: dose 10 mg/kg, route po.
A short description of data set [13]: Microsomal stability in human liver microsomes assessed as intrinsic clearance. In kind it is ADME, Microsome. To be noted: read-out: CLH. (In general: Microsomes from liver hold many membrane-bound enzymes, among them those of drug oxidation.)
Data set [14] is described as follows: Aqueous solubility of the compound in PBS buffer at pH 7.4. In kind it is physicochemical.
For data set [15], the system named is Hepatitis B virus. The data set is described as follows: Antiviral activity against Hepatitis B virus Genotype D infected in NOD.CB17-PrkdcSCID/J mouse model assessed as log reduction in serum HBV DNA level at 100 mg/kg,po dosed for 7 consecutive days by qPCR analysis. In kind it is functional.
Data set [16] is described as follows: AUC (0-infinity) in CD-1 mouse at 10 mg/kg,po. In kind it is ADME, organism-based. To be noted: in vivo. Details: dose 10 mg/kg, route po.
The nature of data set [17]: Microsomal stability in mouse liver microsomes assessed as intrinsic clearance. To be noted: read-out: CLH. Type of data set: ADME, Microsome.
Data set [18] has as its system Hepatitis B virus. The experiment in a line: Antiviral activity against Hepatitis B virus Genotype D infected in NOD.CB17-PrkdcSCID/J mouse model assessed as reduction in serum HBV DNA level at po dosed for 7 consecutive days. Type of data set: functional, organism-based.
Data set [19] is described as follows: in vivo. The conditions noted are these: rat, po, 10 mg/kg.
Description: AUC (0-infinity) in rat at 10 mg/kg,po
Data set [20] can be described thus: Half life in dog at 2 mg/kg,iv. To be noted: in vivo. In kind it is ADME, organism-based, Canis lupus familiaris.
The test system of data set [21] is Hepatitis B virus. The data set is described as follows: Antiviral activity against Hepatitis B virus Genotype D infected in NOD.CB17-PrkdcSCID/J mouse model assessed as log reduction in serum HBV DNA level at 10 mg/kg,po dosed for 7 consecutive days by qPCR analysis. Type of data set: functional.
Data set [22] is described as follows: Clearance in CD-1 mouse at 2 mg/kg,iv. Type of data set: ADME, organism-based. To be noted: in vivo.
The target in data set [23] is Cytochrome P450 2D6 (Homo sapiens, UniProt P10635). The data set is described as follows: Inhibition of CYP2D6 (unknown origin). Type of data set: ADME.
Data set [24] deals with Cytochrome P450 2C19 (Homo sapiens, UniProt P33261). The experiment in a line: Inhibition of CYP2C19 (unknown origin). In kind it is ADME.

pEC50, pIC50: −log10 of the molar value. Values after ≈ are worked out from the molar mass of the structure shown.

For orientation: pIC50 means −log10 of the IC50, conventionally taken in molar units. The pEC50 is −log10 of the EC50, conventionally taken in molar units. The term clearance denotes a measure of how efficiently the substance is removed, as volume per time. High values mean a high capacity for elimination, low ones a low capacity for elimination. For orientation: half-life means the time in which the quantity being followed falls by half. Broadly, the AUC(0-inf) is the area under the concentration-time curve extrapolated to infinity. Read a high AUC(0-inf) as more exposure. As usually defined, the Cmax is the peak of the concentration-time curve. By solubility is commonly meant how much of the substance goes into solution per volume. The low end stands for a poorly soluble substance, the high end for a readily soluble substance.

Chain of Cytochrome P450 2C19 (P33261 whole entry): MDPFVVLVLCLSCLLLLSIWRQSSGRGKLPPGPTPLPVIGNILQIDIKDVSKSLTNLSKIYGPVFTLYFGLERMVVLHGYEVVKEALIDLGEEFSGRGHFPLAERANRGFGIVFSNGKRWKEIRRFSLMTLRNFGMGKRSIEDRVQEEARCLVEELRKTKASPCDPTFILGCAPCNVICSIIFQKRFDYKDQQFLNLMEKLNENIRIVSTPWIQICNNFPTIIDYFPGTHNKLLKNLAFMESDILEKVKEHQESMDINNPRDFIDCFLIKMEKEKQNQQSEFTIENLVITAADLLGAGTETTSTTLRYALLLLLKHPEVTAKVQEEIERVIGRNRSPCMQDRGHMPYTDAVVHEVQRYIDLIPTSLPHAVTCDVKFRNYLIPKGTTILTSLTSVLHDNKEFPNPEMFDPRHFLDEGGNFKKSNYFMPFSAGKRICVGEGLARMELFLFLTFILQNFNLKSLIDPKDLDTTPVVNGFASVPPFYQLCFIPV
Chain of Cytochrome P450 2D6 (P10635 whole entry): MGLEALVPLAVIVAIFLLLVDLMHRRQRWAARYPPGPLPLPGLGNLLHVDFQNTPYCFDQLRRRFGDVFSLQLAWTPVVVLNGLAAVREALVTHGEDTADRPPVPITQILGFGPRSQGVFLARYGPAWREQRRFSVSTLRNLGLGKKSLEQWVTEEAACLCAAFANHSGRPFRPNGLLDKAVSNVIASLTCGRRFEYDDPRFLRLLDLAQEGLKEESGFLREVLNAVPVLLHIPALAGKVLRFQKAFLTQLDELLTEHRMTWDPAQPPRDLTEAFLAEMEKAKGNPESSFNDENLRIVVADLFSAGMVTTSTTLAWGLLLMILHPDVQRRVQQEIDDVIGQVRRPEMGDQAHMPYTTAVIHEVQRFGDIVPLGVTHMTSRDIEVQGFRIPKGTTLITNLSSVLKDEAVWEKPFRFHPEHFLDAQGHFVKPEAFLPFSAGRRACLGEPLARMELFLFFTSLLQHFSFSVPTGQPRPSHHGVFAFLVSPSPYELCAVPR
Chain of Cytochrome P450 2C9 (P11712 whole entry): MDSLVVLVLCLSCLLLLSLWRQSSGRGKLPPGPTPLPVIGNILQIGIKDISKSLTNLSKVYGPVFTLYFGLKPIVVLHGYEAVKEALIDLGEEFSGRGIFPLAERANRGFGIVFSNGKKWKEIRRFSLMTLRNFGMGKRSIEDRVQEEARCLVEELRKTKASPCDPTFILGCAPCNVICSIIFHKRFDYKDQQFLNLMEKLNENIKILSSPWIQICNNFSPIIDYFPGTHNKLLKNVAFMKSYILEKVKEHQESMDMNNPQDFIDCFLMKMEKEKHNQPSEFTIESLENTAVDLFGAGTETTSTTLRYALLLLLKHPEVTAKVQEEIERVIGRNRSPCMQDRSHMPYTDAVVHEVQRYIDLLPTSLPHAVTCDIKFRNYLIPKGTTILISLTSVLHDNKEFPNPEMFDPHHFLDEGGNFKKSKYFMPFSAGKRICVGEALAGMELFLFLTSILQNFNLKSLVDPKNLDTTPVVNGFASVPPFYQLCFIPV
Chain of Cytochrome P450 3A4 (P08684 whole entry): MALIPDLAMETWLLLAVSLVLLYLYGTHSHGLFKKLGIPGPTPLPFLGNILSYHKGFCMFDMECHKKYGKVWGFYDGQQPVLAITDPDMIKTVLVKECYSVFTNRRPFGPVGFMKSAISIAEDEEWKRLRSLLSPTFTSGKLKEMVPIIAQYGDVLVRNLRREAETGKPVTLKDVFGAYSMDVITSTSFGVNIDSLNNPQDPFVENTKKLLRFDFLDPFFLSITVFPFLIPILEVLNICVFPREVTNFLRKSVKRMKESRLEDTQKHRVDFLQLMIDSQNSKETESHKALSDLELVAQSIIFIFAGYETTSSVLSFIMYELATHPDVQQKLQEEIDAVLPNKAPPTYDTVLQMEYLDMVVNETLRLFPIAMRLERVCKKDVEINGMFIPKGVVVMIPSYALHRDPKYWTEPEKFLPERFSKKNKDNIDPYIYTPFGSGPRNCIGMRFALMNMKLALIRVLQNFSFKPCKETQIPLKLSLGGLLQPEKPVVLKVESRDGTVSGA

As for `Cn1cnc(COC(=O)N[C@H]2CCc3c(C(=O)Nc4ccc(F)c(Cl)c4)ccc(F)c32)n1`, the pIC50 in [1], in [4], in [10], in data set [23] and in data set [24] was below 4.70 throughout. The pEC50 in data set [2] was 7.11. The values for the clearance in data set [3], in data set [6] and in data set [22] were 4.6 mL/min/kg, 1.25 mL/min/kg and 18 mL/min/kg, respectively. Moreover, the half-life in data set [5] was 192 min; in data set [8], 150 min; in [20], 684 min. Besides, the AUC(0-inf) in data set [7] came to 134 µg·h/mL; in data set [16], 9870 ng·h/mL; in [19], 39600 ng·h/mL. The Activity in [9] is 2.4 log10CFU; in data set [15], 2.9 log10CFU; in data set [18] it was “Dose-Dependent Effect”; in data set [21] it was 1 log10CFU. Further, the Cmax in [11] came out at 6820 ng/mL; in data set [12], 2850 ng/mL. In addition, the microsomal CLint was determined as 6.2 µL/min/mg in [13] and 21 µL/min/mg in data set [17]. Also, the concentration in solution in [14] (solubility) was 14.8 µM (≈ 6.84 µg/mL).

The values above are taken from ChEMBL document CHEMBL5365440, “Design, synthesis, and structure-activity relationship of a bicyclic HBV capsid assembly modulator chemotype leading to the identification of clinical candidate AB-506” (Bioorg Med Chem Lett, 2023).
